Assay results: PMC12350162, “Electron flow in hydrogenotrophic methanogens under nickel limitation” (Nature, 2025)

Assays:
[1] = target: T1, Elp–Hdr complex, HdrA site (bifurcating FAD) (Methanothermobacter marburgensis, UniProt Q50756); experiment: cryo-EM structure; type: binding; conditions: electron-bifurcating FAD site of HdrA; co-purified native cofactor
T1 construct: with H(2):CoB-CoM heterodisulfide,ferredoxin reductase subunit B; H(2):CoB-CoM heterodisulfide,ferredoxin reductase subunit C; F420-dependent electron-donating protein A (truncated formate dehydrogenase alpha subunit FdhA homologue); F420-dependent electron-donating protein B (formate dehydrogenase beta subunit FdhB homologue); F420-dependent electron-donating protein C (MvhD homologue)
T1 sequence (Q50756 2-659): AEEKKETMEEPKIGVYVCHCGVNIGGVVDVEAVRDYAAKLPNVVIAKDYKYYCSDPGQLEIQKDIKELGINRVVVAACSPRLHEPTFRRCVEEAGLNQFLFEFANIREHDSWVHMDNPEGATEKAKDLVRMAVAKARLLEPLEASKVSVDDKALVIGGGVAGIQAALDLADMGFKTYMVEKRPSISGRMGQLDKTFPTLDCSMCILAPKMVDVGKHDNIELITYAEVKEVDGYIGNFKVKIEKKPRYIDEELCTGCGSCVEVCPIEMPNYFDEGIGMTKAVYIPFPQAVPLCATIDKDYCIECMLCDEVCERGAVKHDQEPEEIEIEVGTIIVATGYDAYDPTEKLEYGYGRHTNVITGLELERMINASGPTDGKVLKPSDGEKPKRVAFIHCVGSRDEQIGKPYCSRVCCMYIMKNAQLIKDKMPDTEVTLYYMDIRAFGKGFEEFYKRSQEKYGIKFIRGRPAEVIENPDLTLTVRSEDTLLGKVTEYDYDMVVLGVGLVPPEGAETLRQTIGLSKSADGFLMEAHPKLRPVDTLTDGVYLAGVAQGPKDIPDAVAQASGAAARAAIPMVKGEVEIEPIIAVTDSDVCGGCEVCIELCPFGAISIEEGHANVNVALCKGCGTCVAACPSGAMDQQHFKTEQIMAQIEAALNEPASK
T1 sequence (Q50755 whole entry partner, the tested form may be a part): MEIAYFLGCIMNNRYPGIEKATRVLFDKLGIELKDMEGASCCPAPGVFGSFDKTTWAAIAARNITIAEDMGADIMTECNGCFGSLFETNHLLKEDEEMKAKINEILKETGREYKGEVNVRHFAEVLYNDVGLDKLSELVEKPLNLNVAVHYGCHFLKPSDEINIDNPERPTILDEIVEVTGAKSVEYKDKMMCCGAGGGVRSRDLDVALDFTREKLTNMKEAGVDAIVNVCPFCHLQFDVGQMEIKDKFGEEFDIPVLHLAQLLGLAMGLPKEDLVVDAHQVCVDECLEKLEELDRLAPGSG
T1 sequence (Q50754 2-185 partner): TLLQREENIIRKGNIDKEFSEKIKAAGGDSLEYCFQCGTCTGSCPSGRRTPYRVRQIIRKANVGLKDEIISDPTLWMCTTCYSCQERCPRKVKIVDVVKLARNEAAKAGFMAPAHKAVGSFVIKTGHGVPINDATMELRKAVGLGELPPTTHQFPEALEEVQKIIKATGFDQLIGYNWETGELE
T1 sequence (D9PY04 1-342 partner): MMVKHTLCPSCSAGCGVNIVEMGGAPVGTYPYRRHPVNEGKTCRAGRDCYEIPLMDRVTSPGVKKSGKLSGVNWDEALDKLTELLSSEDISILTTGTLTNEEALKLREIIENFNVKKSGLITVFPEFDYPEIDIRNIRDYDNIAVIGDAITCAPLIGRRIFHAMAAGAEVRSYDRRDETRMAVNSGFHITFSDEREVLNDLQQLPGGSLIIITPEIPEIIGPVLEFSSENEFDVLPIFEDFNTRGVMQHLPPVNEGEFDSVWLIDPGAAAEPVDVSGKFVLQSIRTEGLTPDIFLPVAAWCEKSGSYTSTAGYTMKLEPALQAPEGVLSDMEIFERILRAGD
T1 sequence (D9PY03 1-380 partner): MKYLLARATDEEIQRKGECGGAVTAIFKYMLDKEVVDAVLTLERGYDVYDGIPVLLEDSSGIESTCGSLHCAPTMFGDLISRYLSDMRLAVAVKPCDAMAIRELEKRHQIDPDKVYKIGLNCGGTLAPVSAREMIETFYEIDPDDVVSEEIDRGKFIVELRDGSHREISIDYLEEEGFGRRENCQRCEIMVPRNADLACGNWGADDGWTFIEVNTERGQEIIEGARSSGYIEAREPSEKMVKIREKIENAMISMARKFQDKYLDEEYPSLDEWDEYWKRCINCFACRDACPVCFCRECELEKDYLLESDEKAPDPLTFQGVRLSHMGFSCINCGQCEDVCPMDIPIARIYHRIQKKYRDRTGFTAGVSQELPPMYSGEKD
T1 sequence (D9PY02 1-136 partner): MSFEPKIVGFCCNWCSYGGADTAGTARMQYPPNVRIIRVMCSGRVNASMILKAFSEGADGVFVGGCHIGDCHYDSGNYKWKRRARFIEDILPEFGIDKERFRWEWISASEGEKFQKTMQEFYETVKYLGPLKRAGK

[2] = target: T2, Elp–Hdr complex (ElpABC–HdrABC)2, ElpB site (Methanothermobacter marburgensis, UniProt D9PY03); experiment: cryo-EM structure; conditions: FAD-binding site of ElpB; co-purified native cofactor; states 1 and 2
T2 construct: gene fdhB; with F420-dependent electron-donating protein A (truncated formate dehydrogenase alpha subunit FdhA homologue); F420-dependent electron-donating protein C (MvhD homologue); H(2):CoB-CoM heterodisulfide,ferredoxin reductase subunit A; H(2):CoB-CoM heterodisulfide,ferredoxin reductase subunit B; H(2):CoB-CoM heterodisulfide,ferredoxin reductase subunit C
T2 sequence (D9PY03 1-380): as the sequence (D9PY03 1-380 partner) above
T2 sequence (D9PY04 1-342 partner): as the sequence (D9PY04 1-342 partner) above
T2 sequence (D9PY02 1-136 partner): as the sequence (D9PY02 1-136 partner) above
T2 sequence (Q50756 2-659 partner): as the sequence (Q50756 2-659) above
T2 sequence (Q50755 whole entry partner, the tested form may be a part): as the sequence (Q50755 whole entry partner, the tested form may be a part) above
T2 sequence (Q50754 2-185 partner): as the sequence (Q50754 2-185 partner) above

Compound: Cc1cc2nc3c(=O)[nH]c(=O)nc-3n(C[C@H](O)[C@H](O)[C@H](O)COP(=O)(O)OP(=O)(O)OC[C@H]3O[C@@H](n4cnc5c(N)ncnc54)[C@H](O)[C@@H]3O)c2cc1C [FAD]
- cryo-EM structure [1]: Cofactors including the electron-bifurcating FAD of HdrA
- cryo-EM structure [2]: the positions of FAD and the four [4Fe–4S] clusters are conserved
